Source: ChEMBL document CHEMBL1201862, “PubChem BioAssay data set” (2004)
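These data come from cells grown in 96-well plates and exposed to compound for 48 hours at five concentrations. GI50 is the concentration that inhibits growth by half.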 Activity calls are given as the source filed them. Rule as the data show it: active = GI50 up to about 1.1 µM and inactive = higher.

How the values were obtained:
Assay in all cases: NCI anticancer screen, dose series, 48 h
[1] = test system: HCT-116
[2] = test system: HOP-18
[3] = test system: HOP-92
[4] = test system: NCI-H226
[5] = test system: NCI-H23
[6] = test system: NCI/ADR-RES
[7] = test system: OVCAR-3
[8] = test system: RPMI-8226
[9] = test system: SF-268
[10] = test system: SF-539
[11] = test system: SNB-75
[12] = test system: SNB-78
[13] = test system: UACC-257
[14] = test system: XF498
[15] = test system: ACHN
[16] = test system: DU-145
[17] = test system: MDA-MB-231
[18] = test system: MDA-MB-435
[19] = test system: PC-3
[20] = test system: TK-10

Cn1c(=O)[nH]c2nncnc2c1=O
GI50 [1]: 29.2 µM (inactive)
GI50 [2]: 13.5 µM (inactive)
GI50 [3]: 21.3 µM (inactive)
GI50 [4]: 5.83 µM (inactive)
GI50 [5]: 179 µM (inactive)
GI50 [6]: 217 µM (inactive)
GI50 [7]: 78.9 µM (inactive)
GI50 [8]: 77.4 µM (inactive)
GI50 [9]: 133 µM (inactive)
GI50 [10]: 64.9 µM (inactive)
GI50 [11]: 21 µM (inactive)
GI50 [12]: 151 µM (inactive)
GI50 [13]: 75.3 µM (inactive)
GI50 [14]: 54.2 µM (inactive)

Nc1cccc2c1C1=NNC(=O)CC1C2 (stereo not given)
GI50 [1]: > 100 µM (inactive)
GI50 [3]: 2.51 µM (inactive)
GI50 [4]: > 100 µM (inactive)
GI50 [6]: > 100 µM (inactive)
GI50 [7]: > 100 µM (inactive)
GI50 [8]: > 100 µM (inactive)
GI50 [9]: > 100 µM (inactive)
GI50 [10]: > 100 µM (inactive)
GI50 [11]: > 100 µM (inactive)
GI50 [12]: > 100 µM (inactive)
GI50 [13]: > 100 µM (inactive)
GI50 [14]: > 100 µM (inactive)

c1ccc2c(c1)OCCc1cn[nH]c1-2
GI50 [1]: > 100 µM (inactive)
GI50 [2]: > 43.5 µM (inactive)
GI50 [3]: > 42.3 µM (inactive)
GI50 [4]: 22.2 µM (inactive)
GI50 [5]: > 100 µM (inactive)
GI50 [6]: > 100 µM (inactive)
GI50 [7]: > 100 µM (inactive)
GI50 [9]: > 100 µM (inactive)
GI50 [10]: > 100 µM (inactive)
GI50 [11]: 42 µM (inactive)
GI50 [12]: > 100 µM (inactive)
GI50 [13]: > 100 µM (inactive)
GI50 [14]: 52.2 µM (inactive)

C[C@]12CC[C@@H]3c4ccc(OCCN5CCCC5)cc4CC[C@H]3[C@@H]1CCC2=O
GI50 [15]: 62.7 µM (inactive)
GI50 [16]: 47.9 µM (inactive)
GI50 [3]: 29 µM (inactive)
GI50 [17]: 24.5 µM (inactive)
GI50 [18]: 42.7 µM (inactive)
GI50 [4]: 19.6 µM (inactive)
GI50 [5]: 36.4 µM (inactive)
GI50 [6]: 24.7 µM (inactive)
GI50 [7]: 23.9 µM (inactive)
GI50 [19]: 23.7 µM (inactive)
GI50 [8]: 23.7 µM (inactive)
GI50 [20]: 41 µM (inactive)
GI50 [13]: 27 µM (inactive)

CSc1nc(CO)c(CO)n1C
GI50 [1]: > 100 µM (inactive)
GI50 [2]: > 100 µM (inactive)
GI50 [3]: > 100 µM (inactive)
GI50 [4]: > 100 µM (inactive)
GI50 [5]: > 100 µM (inactive)
GI50 [6]: > 100 µM (inactive)
GI50 [7]: > 100 µM (inactive)
GI50 [8]: > 100 µM (inactive)
GI50 [9]: > 100 µM (inactive)
GI50 [10]: > 100 µM (inactive)
GI50 [11]: > 100 µM (inactive)
GI50 [12]: > 100 µM (inactive)
GI50 [13]: > 100 µM (inactive)
GI50 [14]: > 100 µM (inactive)

NC(CCP(=O)(O)CCC1C=CC=CC1)C(=O)O (stereo not given)
GI50 [15]: > 100 µM (inactive)
GI50 [16]: > 100 µM (inactive)
GI50 [1]: > 100 µM (inactive)
GI50 [3]: > 100 µM (inactive)
GI50 [17]: > 100 µM (inactive)
GI50 [18]: > 100 µM (inactive)
GI50 [5]: > 100 µM (inactive)
GI50 [6]: > 100 µM (inactive)
GI50 [7]: > 100 µM (inactive)
GI50 [19]: > 100 µM (inactive)
GI50 [8]: > 100 µM (inactive)
GI50 [9]: > 100 µM (inactive)
GI50 [10]: 56.8 µM (inactive)
GI50 [11]: > 100 µM (inactive)
GI50 [20]: > 100 µM (inactive)
GI50 [13]: > 100 µM (inactive)

CSc1nc(NC2OC(CO)C(O)C(O)C2O)c(N)c(=O)[nH]1 (stereo not given)
GI50 [1]: > 100 µM (inactive)
GI50 [2]: > 100 µM (inactive)
GI50 [3]: > 100 µM (inactive)
GI50 [4]: > 100 µM (inactive)
GI50 [5]: > 100 µM (inactive)
GI50 [6]: > 100 µM (inactive)
GI50 [7]: > 100 µM (inactive)
GI50 [8]: > 100 µM (inactive)
GI50 [9]: > 100 µM (inactive)
GI50 [10]: > 100 µM (inactive)
GI50 [11]: > 100 µM (inactive)
GI50 [12]: > 100 µM (inactive)
GI50 [13]: > 100 µM (inactive)
GI50 [14]: > 100 µM (inactive)

COc1ccc2c(c1O)-c1cc(O)cc3c1[C@@H](C2)N(C)CC3
GI50 [1]: 27 µM (inactive)
GI50 [2]: 67.3 µM (inactive)
GI50 [3]: 19 µM (inactive)
GI50 [4]: 47 µM (inactive)
GI50 [5]: 96.8 µM (inactive)
GI50 [6]: 75.9 µM (inactive)
GI50 [7]: 55.8 µM (inactive)
GI50 [8]: 75.3 µM (inactive)
GI50 [9]: 75.3 µM (inactive)
GI50 [10]: 81.1 µM (inactive)
GI50 [11]: 60.7 µM (inactive)
GI50 [12]: 83 µM (inactive)
GI50 [13]: 71 µM (inactive)
GI50 [14]: 93.8 µM (inactive)

O=C(c1ccccc1)c1ccc2n[se]nc2c1
GI50 [15]: 7.03 µM (inactive)
GI50 [2]: < 0.01 µM (active)
GI50 [5]: 62.5 µM (inactive)
GI50 [8]: 28.4 µM (inactive)
GI50 [9]: > 100 µM (inactive)
GI50 [10]: 17.9 µM (inactive)
GI50 [11]: 18.4 µM (inactive)
GI50 [12]: > 100 µM (inactive)
GI50 [20]: > 100 µM (inactive)
GI50 [13]: > 100 µM (inactive)

COc1cc(-c2cc(=O)c3c(O)c(CC=C(C)C)c(O)cc3o2)ccc1O
GI50 [15]: 19.1 µM (inactive)
GI50 [16]: 32.9 µM (inactive)
GI50 [1]: 16.2 µM (inactive)
GI50 [3]: > 50 µM (inactive)
GI50 [17]: 43.5 µM (inactive)
GI50 [18]: 9.1 µM (inactive)
GI50 [4]: > 50 µM (inactive)
GI50 [5]: > 50 µM (inactive)
GI50 [6]: 16 µM (inactive)
GI50 [7]: 14.9 µM (inactive)
GI50 [19]: 16.7 µM (inactive)
GI50 [8]: 11.7 µM (inactive)
GI50 [9]: 24.6 µM (inactive)
GI50 [10]: 16.9 µM (inactive)
GI50 [20]: 23.4 µM (inactive)
GI50 [13]: > 50 µM (inactive)

CCOC(=O)CSc1nc(N)c2c(-c3ccc(OC)c(OC)c3)c3c(nc2n1)CCCC3
GI50 [15]: > 100 µM (inactive)
GI50 [16]: > 100 µM (inactive)
GI50 [1]: > 100 µM (inactive)
GI50 [17]: 43 µM (inactive)
GI50 [18]: > 100 µM (inactive)
GI50 [5]: > 100 µM (inactive)
GI50 [6]: 60.3 µM (inactive)
GI50 [7]: > 100 µM (inactive)
GI50 [19]: > 100 µM (inactive)
GI50 [8]: > 100 µM (inactive)
GI50 [9]: 43.4 µM (inactive)
GI50 [11]: 14.4 µM (inactive)
GI50 [20]: > 100 µM (inactive)
GI50 [13]: > 100 µM (inactive)

O=C(Nc1ccccc1F)c1c(O)nc2sccn2c1=O
GI50 [15]: > 10 µM (inactive)
GI50 [16]: > 10 µM (inactive)
GI50 [1]: > 10 µM (inactive)
GI50 [17]: > 10 µM (inactive)
GI50 [18]: > 10 µM (inactive)
GI50 [4]: > 10 µM (inactive)
GI50 [5]: > 10 µM (inactive)
GI50 [6]: > 10 µM (inactive)
GI50 [7]: > 10 µM (inactive)
GI50 [19]: > 10 µM (inactive)
GI50 [8]: > 10 µM (inactive)
GI50 [9]: > 10 µM (inactive)
GI50 [10]: > 10 µM (inactive)
GI50 [11]: > 10 µM (inactive)
GI50 [20]: > 10 µM (inactive)
